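Five compound concentrations were applied to cells in 96-well plates for 48 hours; endpoints were derived by simple linear interpolation of the resulting dose-response curve. Here, GI50 denotes the concentration required for 50% inhibition of growth. At the TGI there is no net growth.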
Experiments:
Test in all cases: inhibition of tumour cell growth, NCI panel, 48 h
786-0 renal = test system: 786-0 renal
A498 renal = test system: A498 renal
A549 NSCLC = test system: A549 NSCLC
ACHN renal = test system: ACHN renal
BT-549 breast = test system: BT-549 breast
CAKI-1 renal = test system: CAKI-1 renal
CCRF-CEM leukemia = test system: CCRF-CEM leukemia
COLO 205 colon = test system: COLO 205 colon
DU-145 prostate = test system: DU-145 prostate
HCC-2998 colon = test system: HCC-2998 colon
HCT-116 colon = test system: HCT-116 colon
HCT-15 colon = test system: HCT-15 colon
HL-60(TB) leukemia = test system: HL-60(TB) leukemia
HOP-62 NSCLC = test system: HOP-62 NSCLC
HOP-92 NSCLC = test system: HOP-92 NSCLC
HS 578T breast = test system: HS 578T breast
HT29 colon = test system: HT29 colon
IGROV1 ovarian = test system: IGROV1 ovarian
K-562 leukemia = test system: K-562 leukemia
KM12 colon = test system: KM12 colon
LOX IMVI melanoma = test system: LOX IMVI melanoma
MALME-3M melanoma = test system: MALME-3M melanoma
MCF7 breast = test system: MCF7 breast
MDA-MB-231 breast = test system: MDA-MB-231 breast
MDA-MB-435 = test system: MDA-MB-435
MOLT-4 leukemia = test system: MOLT-4 leukemia
NCI-H226 lung = test system: NCI-H226 lung
NCI-H23 lung = test system: NCI-H23 lung
NCI-H460 lung = test system: NCI-H460 lung
NCI-H522 lung = test system: NCI-H522 lung
NCI/ADR-RES ovarian = test system: NCI/ADR-RES ovarian
OVCAR-3 ovarian = test system: OVCAR-3 ovarian
OVCAR-4 ovarian = test system: OVCAR-4 ovarian
OVCAR-5 ovarian = test system: OVCAR-5 ovarian
OVCAR-8 ovarian = test system: OVCAR-8 ovarian
PC-3 prostate = test system: PC-3 prostate
RPMI-8226 leukemia = test system: RPMI-8226 leukemia
RXF 393 renal = test system: RXF 393 renal
SF-268 CNS = test system: SF-268 CNS
SF-295 CNS = test system: SF-295 CNS
SF-539 CNS = test system: SF-539 CNS
SK-MEL-2 melanoma = test system: SK-MEL-2 melanoma
SK-MEL-28 melanoma = test system: SK-MEL-28 melanoma
SK-MEL-5 melanoma = test system: SK-MEL-5 melanoma
SK-OV-3 ovarian = test system: SK-OV-3 ovarian
SN12C renal = test system: SN12C renal
SNB-19 CNS = test system: SNB-19 CNS
SNB-75 CNS = test system: SNB-75 CNS
SR leukemia = test system: SR leukemia
SW-620 colon = test system: SW-620 colon
T-47D breast = test system: T-47D breast
TK-10 renal = test system: TK-10 renal
U251 CNS = test system: U251 CNS
UACC-257 melanoma = test system: UACC-257 melanoma
UACC-62 melanoma = test system: UACC-62 melanoma
UO-31 renal = test system: UO-31 renal

COc1cc(Nc2ccnc(NCCNc3ccnc4cc(Cl)ccc34)n2)cc(OC)c1
GI50 (786-0 renal): 1560 nM
TGI (786-0 renal): 2900 nM
GI50 (A498 renal): 175 nM
TGI (A498 renal): 2200 nM
GI50 (A549 NSCLC): 3230 nM
TGI (A549 NSCLC): 14800 nM
GI50 (ACHN renal): 1950 nM
TGI (ACHN renal): 5160 nM
GI50 (BT-549 breast): 1860 nM
TGI (BT-549 breast): 4240 nM
GI50 (CAKI-1 renal): 2170 nM
TGI (CAKI-1 renal): 6590 nM
GI50 (CCRF-CEM leukemia): 2450 nM
TGI (CCRF-CEM leukemia): 9690 nM
GI50 (COLO 205 colon): 1610 nM
TGI (COLO 205 colon): 3460 nM
GI50 (DU-145 prostate): 4030 nM
TGI (DU-145 prostate): 15600 nM
GI50 (HCC-2998 colon): 1750 nM
TGI (HCC-2998 colon): 3780 nM
GI50 (HCT-116 colon): 830 nM
TGI (HCT-116 colon): 2580 nM
GI50 (HCT-15 colon): 1370 nM
TGI (HCT-15 colon): 3420 nM
GI50 (HL-60(TB) leukemia): 2220 nM
TGI (HL-60(TB) leukemia): 5280 nM
GI50 (HOP-62 NSCLC): 2140 nM
TGI (HOP-62 NSCLC): 8360 nM
GI50 (HOP-92 NSCLC): 811 nM
TGI (HOP-92 NSCLC): 4450 nM
GI50 (HS 578T breast): 2180 nM
TGI (HS 578T breast): 5930 nM
GI50 (HT29 colon): 588 nM
TGI (HT29 colon): 3760 nM
GI50 (IGROV1 ovarian): 1890 nM
TGI (IGROV1 ovarian): 5560 nM
GI50 (K-562 leukemia): 843 nM
TGI (K-562 leukemia): 3820 nM
GI50 (KM12 colon): 3340 nM
TGI (KM12 colon): 14200 nM
GI50 (LOX IMVI melanoma): 1470 nM
TGI (LOX IMVI melanoma): 2970 nM
GI50 (MALME-3M melanoma): 1860 nM
TGI (MALME-3M melanoma): 3690 nM
GI50 (MCF7 breast): 1610 nM
TGI (MCF7 breast): 3970 nM
GI50 (MDA-MB-231 breast): 1410 nM
TGI (MDA-MB-231 breast): 3740 nM
GI50 (MDA-MB-435): 1550 nM
TGI (MDA-MB-435): 2950 nM
GI50 (MOLT-4 leukemia): 1840 nM
TGI (MOLT-4 leukemia): 8900 nM
GI50 (NCI-H226 lung): 2950 nM
TGI (NCI-H226 lung): 22800 nM
GI50 (NCI-H23 lung): 1860 nM
TGI (NCI-H23 lung): 14100 nM
GI50 (NCI-H460 lung): 1450 nM
TGI (NCI-H460 lung): 5310 nM
GI50 (NCI-H522 lung): 1780 nM
TGI (NCI-H522 lung): 5190 nM
GI50 (NCI/ADR-RES ovarian): 3790 nM
TGI (NCI/ADR-RES ovarian): 16400 nM
GI50 (OVCAR-3 ovarian): 1890 nM
TGI (OVCAR-3 ovarian): 5030 nM
GI50 (OVCAR-4 ovarian): 1330 nM
TGI (OVCAR-4 ovarian): 6560 nM
GI50 (OVCAR-5 ovarian): 1660 nM
TGI (OVCAR-5 ovarian): 6270 nM
GI50 (OVCAR-8 ovarian): 2520 nM
TGI (OVCAR-8 ovarian): 11500 nM
GI50 (PC-3 prostate): 2510 nM
TGI (PC-3 prostate): 14400 nM
GI50 (RPMI-8226 leukemia): 1410 nM
TGI (RPMI-8226 leukemia): 4450 nM
GI50 (RXF 393 renal): 1380 nM
TGI (RXF 393 renal): 2940 nM
GI50 (SF-268 CNS): 3100 nM
TGI (SF-268 CNS): 12500 nM
GI50 (SF-295 CNS): 961 nM
TGI (SF-295 CNS): 2430 nM
GI50 (SF-539 CNS): 1480 nM
TGI (SF-539 CNS): 2860 nM
GI50 (SK-MEL-2 melanoma): 1910 nM
TGI (SK-MEL-2 melanoma): 4180 nM
GI50 (SK-MEL-28 melanoma): 1760 nM
TGI (SK-MEL-28 melanoma): 3290 nM
GI50 (SK-MEL-5 melanoma): 1690 nM
TGI (SK-MEL-5 melanoma): 3240 nM
GI50 (SK-OV-3 ovarian): 8580 nM
TGI (SK-OV-3 ovarian): 21000 nM
GI50 (SN12C renal): 2190 nM
TGI (SN12C renal): 12400 nM
GI50 (SNB-19 CNS): 2380 nM
TGI (SNB-19 CNS): 8900 nM
GI50 (SNB-75 CNS): 1730 nM
TGI (SNB-75 CNS): 3520 nM
GI50 (SR leukemia): 1650 nM
TGI (SR leukemia): 6850 nM
GI50 (SW-620 colon): 1660 nM
TGI (SW-620 colon): 4180 nM
GI50 (T-47D breast): 1730 nM
TGI (T-47D breast): 4450 nM
GI50 (TK-10 renal): 3720 nM
TGI (TK-10 renal): 9710 nM
GI50 (U251 CNS): 1610 nM
TGI (U251 CNS): 4270 nM
GI50 (UACC-257 melanoma): 1820 nM
TGI (UACC-257 melanoma): 3870 nM
GI50 (UACC-62 melanoma): 1600 nM
TGI (UACC-62 melanoma): 3080 nM
GI50 (UO-31 renal): 1190 nM
TGI (UO-31 renal): 2810 nM

Reference: PubChem BioAssay (NCI)
